Assay results as given in US9102619B2, “Derivatives of 1-phenyl-2-pyridinyl alkyl alcohols as phosphodiesterase inhibitors” (Chiesi Farmaceutici S.p.A., priority 2007, dated 2015).

Columns and labels:
PDE4 enzyme = test: In vitro PDE4 inhibitory activity in the cell free assay (cAMP disappearance, U937 cell supernatant); type: biochemical, human; details: 1.6 μM cAMP, 30° C. 30 minutes
Description: The U937 human monocytic cell line was used as source of PDE4 enzyme. Cells were cultured, harvested and supernatant fraction prepared essentially as described in Torphy, T. J. et al., J. Pharmacol. Exp. Ther., 1992; 263:1195-1205. PDE4 activity was determined in cells supernatants by assaying cAMP disappearance from the incubation mixtures. 50 μl of cell supernatant were incubated at 30° C. for 30 minutes in a final volume of 200 μl in the presence of 1.6 μM cAMP with or without the test compound (50 μl).
The concentration of the test compounds ranged between 10^−12 M and 10^−6 M. Reactions were stopped by heat inactivation (2.5 minutes at 100° C.) and residual cAMP was measured using an electrochemiluminescence (ECL)-based immunoassay.
Percentage of inhibition of PDE4 activity was calculated, assuming cAMP disappearance in the absence of inhibitors as 100% and cAMP disappearance in heat inactivated samples as 0%.

[1] = test system: LPS-induced TNF-α release in peripheral blood mononuclear cells (PBMCs); test: PDE4 inhibitory activity in the PBMCs assay (LPS-induced TNF-α release); type: cell-based; details: human PBMCs, LPS 3 ng/ml, 18 hours, TNF-α by ELISA
Description: The assay, which is based on the known inhibitory activity exerted by PDE4 inhibitors on the lipopolysaccharides (LPS)-induced tumour necrosis factor-alpha (TNF-α release in peripheral blood mononuclear cells (PBMCs), was performed according to a method previously described (Hatzelmann A. et al., J. Pharmacol. Exp. Ther., 2001; 297:267-279; Draheim R. et al., J. Pharmacol. Exp. Ther., 2004; 308:555-563. Cryopreserved human PBMCs, (100 μl/well) were incubated in 96-well plates (10^5 cells/well), for 30 min, in the presence or absence (50 microl) of the test compounds whose concentrations ranged from 10^−12 M to 10^−6M. Subsequently, LPS (3 ng/ml) was added. After 18 hours of incubation at 37° C. in a humidified incubator under an atmosphere of 95% air and 5% CO2, culture medium was collected and TNF-α measured by ELISA.
The effects of the tested compounds were calculated as percentage of inhibition of TNF-α release, assuming LPS-induced TNF-α production in the absence of inhibitor compound as 100% and basal TNF-α production of PBMCs in the absence of LPS as 0%.

LPDE4 [2] = test system: T1, LPDE4; test: Inhibition of low affinity LPDE4 (cAMP disappearance); type: biochemical; details: 50% inhibition of cAMP disappearance
T1 construct: LPDE4 IC50
From the text: (§1) Advantageously the compounds of the invention are characterized by selectivity toward LPDE4 higher than that toward HPDE4 as obtained by the determination of their IC50. In the case of LPDE4, the IC50 is the molar concentration of the test compound producing 50% inhibition of cAMP disappearance, assessed as described in Cortijo, J. et al., Br. J. Pharmacol., 1993, 108: 562-568, while in the case of HPDE4, the IC50 is the molar concentration of the test compound producing 50% inhibition of the binding of [H^3] rolipram, assessed as described in Duplantier, A. J. et al., J. Med. Chem., 1996; 39: 120-125. Preferably the HPDE4/LPDE4 IC50 ratio for the compounds of the invention is higher than 5, preferably higher than 10, more preferably higher than 20 and even more preferably higher than 100.
(§2) The affinity toward LPDE4 and HPDE4 was assessed as previously described respectively in Cortijo J. et al., Br. J. Pharmacol., 1993, 108: 562-568 and Duplantier A. J. et al., J. Med. Chem., 1996; 39: 120-125. In the case of LPDE4, the IC50 is the molar concentration of the test compound producing 50% inhibition of cAMP disappearance, while in the case of HPDE4, the IC50 is the molar concentration of the test compound producing 50% inhibition of the binding of [H^3] rolipram.

LPDE4 [3] = test: as above; type: biochemical; details: ratio of IC50 values
From the text: as §1, §2

HPDE4 = test: Competition for high affinity HPDE4 ([H^3] rolipram binding); details: 50% inhibition of the binding of [H^3] rolipram
From the text: as §1, §2

| Compound | IC50 (PDE4 enzyme) [nM] | IC50 ([1]; PBMC) [nM] | IC50 (LPDE4 [2]) [nM] | HPDE4/LPDE4 (LPDE4 [3]) | IC50 (HPDE4) [nM] | IC50 [1] [nM] |
| --- | --- | --- | --- | --- | --- | --- |
| COc1ccc(C(Cc2c(Cl)cncc2Cl)OC(=O)[C@@H](C)c2ccc(CC(C)C)cc2)cc1OC (stereo partly drawn) [Compound 1, (S)-2-(4-isobutyl-phenyl)-propionic acid 2-(3,5-dichloro-pyridin-4-yl)-1-(3,4-dimethoxy-phenyl)-ethyl ester] | 118 | 69 |  |  |  |  |
| COc1ccc(C(Cc2c(Cl)cncc2Cl)OC(=O)Cc2ccccc2)cc1OC (stereo not drawn) [Compound 2, phenyl-acetic acid 2-(3,5-dichloro-pyridin-4-yl)-1-(3,4-dimethoxy-phenyl)-ethyl ester] |  | 89 |  |  |  |  |
| COc1ccc(C(Cc2c(Cl)cncc2Cl)OC(=O)C2(c3ccccc3)CC2)cc1OC (stereo not drawn) [Compound 3, 1-phenyl-cyclopropanecarboxylic acid 2-(3,5-dichloro-pyridin-4-yl)-1-(3,4-dimethoxy-phenyl)-ethyl ester] | 118 | 52 |  |  |  |  |
| COc1ccc(C(=O)OC(Cc2c(Cl)cncc2Cl)c2ccc(OC)c(OC)c2)cc1OC (stereo not drawn) [Compound 4, 3,4-dimethoxy-benzoic acid 2-(3,5-dichloro-pyridin-4-yl)-1-(3,4-dimethoxy-phenyl)-ethyl ester] | 3.4 | 34.2 |  |  |  |  |
| CC(C)(C)OC(=O)N[C@@H](C(=O)OC(Cc1c(Cl)cncc1Cl)c1ccc(OC(F)F)c(OCC2CC2)c1)c1ccccc1 (stereo partly drawn) [Compound 6, (R)-tert-butoxycarbonylamino-phenyl-acetic acid 1-(3-cyclopropylmethoxy-4-difluoromethoxy-phenyl)-2-(3,5-dichloro-pyridin-4-yl)-ethyl ester] | 9 | 95 |  |  |  |  |
| N[C@H](C(=O)OC(Cc1c(Cl)cncc1Cl)c1ccc(OC(F)F)c(OCC2CC2)c1)c1ccccc1 (stereo partly drawn) [Compound 7, (S)-amino-phenyl-acetic acid 1-(3-cyclopropylmethoxy-4-difluoromethoxy-phenyl)-2-(3,5-dichloro-pyridin-4-yl)-ethyl ester] | 7 | 99 |  |  |  |  |
| N[C@@H](C(=O)OC(Cc1c(Cl)cncc1Cl)c1ccc(OC(F)F)c(OCC2CC2)c1)c1ccccc1 (stereo partly drawn) [Compound 8, (R)-amino-phenyl-acetic acid 1-(3-cyclopropylmethoxy-4-difluoromethoxy-phenyl)-2-(3,5-dichloro-pyridin-4-yl)-ethyl ester] | 22 |  |  |  |  |  |
| COc1ccc(C(Cc2c(Cl)cncc2Cl)OC(=O)C(C)c2ccc(CC(C)C)cc2)cc1OC1CCCC1 (stereo not drawn) [Compound 9, 2-(4-isobutyl-phenyl)-propionic acid 1-(3-cyclopentyloxy-4-methoxy-phenyl)-2-(3,5-dichloro-pyridin-4-yl)-ethyl ester] | 22 | 85 | 0.738 | 541 | 399 |  |
| O=C(OC(Cc1c(Cl)cncc1Cl)c1ccc(OC(F)F)c(OCC2CC2)c1)c1ccc(OC(F)F)c(OCC2CC2)c1 (stereo not drawn) [Compound 11, 3-cyclopropylmethoxy-4-difluoromethoxy-benzoic acid 1-(3-cyclopropylmethoxy-4-difluoromethoxy-phenyl)-2-(3,5-dichloro-pyridin-4-yl)-ethyl ester] | 12 | 51 | 0.116 | 1319 | 153 |  |
| CC(C)Cc1ccc(C(C)C(=O)OC(Cc2c(Cl)cncc2Cl)c2ccc(OC(F)F)c(OCC3CC3)c2)cc1 (stereo not drawn) [Compound 12, 2-(4-isobutyl-phenyl)-propionic acid 1-(3-cyclopropylmethoxy-4-difluoromethoxy-phenyl)-2-(3,5-dichloro-pyridin-4-yl)-ethyl ester] | 12 | 456 |  |  |  |  |
| COc1ccc(C(Cc2c(Cl)c[n+]([O-])cc2Cl)OC(=O)C(C)c2ccc(CC(C)C)cc2)cc1OC [Compound 13, (S)-2-(4-isobutyl-phenyl)-propionic acid 2-(3,5-dichloro-1-oxy-pyridin-4-yl)-1-(3,4-dimethoxy-phenyl)-ethyl ester] |  | 13 |  |  |  |  |
| O=C(OC(Cc1c(Cl)c[n+]([O-])cc1Cl)c1ccc(OC(F)F)c(OCC2CC2)c1)c1ccc(OC(F)F)c(OCC2CC2)c1 (stereo not drawn) [Compound 14, 3-cyclopropylmethoxy-4-difluoromethoxy-benzoic acid 1-(3-cyclopropylmethoxy-4-difluoromethoxy-phenyl)-2-(3,5-dichloro-1-oxy-pyridin-4-yl)-ethyl ester] |  | 2 |  |  |  |  |
| CC(C)Cc1ccc(C(C)C(=O)OC(Cc2c(Cl)c[n+]([O-])cc2Cl)c2ccc(OC(F)F)c(OCC3CC3)c2)cc1 (stereo not drawn) [Compound 15, 2-(4-isobutyl-phenyl)-propionic acid 1-(3-cyclopropylmethoxy-4-difluoromethoxy-phenyl)-2-(3,5-dichloro-1-oxy-pyridin-4-yl)-ethyl ester] | 8.6 |  | 0.169 | 273 | 2.17 | 15 |
| COc1ccc(C(Cc2c(Cl)cncc2Cl)OC(=O)C(C)c2ccc(N)cc2)cc1OC (stereo not drawn) [Compound 16, 2-(4-amino-phenyl)-propionic acid 2-(3,5-dichloro-pyridin-4-yl)-1-(3,4-dimethoxy-phenyl)-ethyl ester] | 6.3 | 36 |  |  |  |  |
| COc1ccc(C(O)Cc2c(Cl)c[n+]([O-])cc2Cl)cc1OC1CCCC1 (stereo not drawn) [Compound 20] |  |  | 0.759 | 394 | 299 |  |
